What was measured:
Type in all cases: cell-based
[1] = tested on: SH-SY5Y cells; assay: peroxisomal fatty acid beta oxidation (chain shortening of C22 to C18, C16 and C14) in SH-SY5Y cells; settings: 250 μM, 6 days, chain shortening of C22 to C18, C16 and C14 (FIG. 1C)
Procedure: (§1) SH-SY5Y cells were stored frozen and cells with passage numbers between 20 and 24 were utilized. When required, SH-SY5Y cells were thawed at 20-25° C. and quickly seeded at a density of 13.3×10^3 cell/cm^2 in 75 cm^2 flasks. SH-SY5Y cells were then grown in media containing 1:1 DMEM/F-12+100 mL/L FBS+10 mL/L I-glutamine at +37° C. and 5% CO2. SH-SY5Y cells were exposed to 250 μM decanoic acid (C10) or octanoic acid (C8) for 6 days.
(§2) To assess effects upon peroxisomal content and function, the following parameters were studied; (a) activity of the peroxisomal marker enzyme, acyl CoA oxidase, (b) expression of Pex11a, a gene associated with peroxisomal biogenesis and (c) evaluation of peroxisomal fatty acid beta oxidation by monitoring the chain shortening of a very long chain fatty acid, C22, to C18, C16 and C14.

[2] = tested on: acyl CoA oxidase; assay: acyl CoA oxidase activity in SH-SY5Y cells; settings: 250 μM, 6 days (FIG. 1A)
Procedure: as §1, §2

[3] = tested on: Pex11a; assay: expression of Pex11a in SH-SY5Y cells; settings: 250 μM, 6 days (FIG. 1B)
Procedure: as §1, §2

## CCCCCCCCCC(=O)O [C10, Decanoic acid]
[1]
  capacity to perform peroxisomal beta oxidation: increased capacity to perform peroxisomal beta oxidation
[2]
  acyl CoA oxidase activity: increase in acyl CoA oxidase activity
[3]
  Pex11a expression: increased Pex11a
